These results are taken from article PMC6478789, “A chemical toolbox for the study of bromodomains and epigenetic signaling” (Nature Communications, 2019).

Where two headings read alike, the source gives them in different places.

The target in one test is EP300 (Homo sapiens, UniProt Q09472). Briefly: Histone acetyltransferase (HAT) activity assay. The format is biochemical. The settings on record: for activity at 1 µM / activity at 10 µM: read-out: HATs Activity (%).
Another test addresses MYST3 (Homo sapiens, UniProt Q92794). The test is described as follows: Histone acetyltransferase (HAT) activity assay. The format is biochemical. The settings on record: for activity at 1 µM / activity at 10 µM: read-out: HATs Activity (%).
The next test deals with BRD8(2) (Homo sapiens, UniProt Q9H0E9). The test is described as follows: BROMOscan ligand-binding assay.
Chain of BRD8(2) (Q9H0E9 1099-1207 limits assumed): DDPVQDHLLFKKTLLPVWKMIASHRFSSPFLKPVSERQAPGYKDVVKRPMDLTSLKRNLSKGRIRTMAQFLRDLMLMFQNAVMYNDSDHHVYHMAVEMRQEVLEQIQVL
The target of a further test is BRD8(1) (Homo sapiens, UniProt Q9H0E9). Briefly: BROMOscan ligand-binding assay.
Chain of BRD8(1) (Q9H0E9 706-811 limits assumed): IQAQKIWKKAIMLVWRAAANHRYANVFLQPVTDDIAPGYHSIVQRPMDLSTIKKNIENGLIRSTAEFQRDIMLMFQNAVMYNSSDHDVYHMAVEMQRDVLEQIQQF
For another test, the target named is T1, MYST1 (Homo sapiens, UniProt Q9H7Z6).
T1 sequence (Q9H7Z6 1-458): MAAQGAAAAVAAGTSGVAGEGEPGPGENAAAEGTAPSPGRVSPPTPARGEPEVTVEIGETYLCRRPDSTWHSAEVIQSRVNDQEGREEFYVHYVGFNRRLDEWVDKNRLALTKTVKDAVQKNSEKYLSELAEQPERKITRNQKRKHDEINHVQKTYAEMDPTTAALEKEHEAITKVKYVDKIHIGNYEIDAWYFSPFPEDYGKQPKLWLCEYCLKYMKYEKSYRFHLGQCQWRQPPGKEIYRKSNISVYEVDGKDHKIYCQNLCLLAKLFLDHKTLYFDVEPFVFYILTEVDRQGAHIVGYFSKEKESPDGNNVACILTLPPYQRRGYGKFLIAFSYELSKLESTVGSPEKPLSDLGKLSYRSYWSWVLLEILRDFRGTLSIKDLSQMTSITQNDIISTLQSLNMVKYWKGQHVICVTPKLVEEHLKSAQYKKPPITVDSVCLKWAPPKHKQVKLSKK
The test is described as follows: Histone acetyltransferase (HAT) activity assay. The note with it: for activity at 1 µM / activity at 10 µM: read-out: HATs Activity (%). The format is biochemical.

For a further test, the target named is T2, BRPF1 (Homo sapiens, UniProt P55201).
T2 sequence (P55201 628-732 limits assumed): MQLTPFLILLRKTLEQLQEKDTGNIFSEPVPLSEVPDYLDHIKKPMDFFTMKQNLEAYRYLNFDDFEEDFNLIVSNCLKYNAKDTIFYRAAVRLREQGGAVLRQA
Briefly: BROMOscan ligand-binding assay.

A further test has as its target BRD3(1) (Homo sapiens, UniProt Q15059). Briefly: BROMOscan ligand-binding assay.
The target in the next test is GCN5L2 (Homo sapiens, UniProt Q92830). The test is described as follows: Histone acetyltransferase (HAT) activity assay. Format: biochemical. The note with it: for activity at 1 µM / activity at 10 µM: read-out: HATs Activity (%).
Chain of GCN5L2 (Q92830 whole entry, species assumed): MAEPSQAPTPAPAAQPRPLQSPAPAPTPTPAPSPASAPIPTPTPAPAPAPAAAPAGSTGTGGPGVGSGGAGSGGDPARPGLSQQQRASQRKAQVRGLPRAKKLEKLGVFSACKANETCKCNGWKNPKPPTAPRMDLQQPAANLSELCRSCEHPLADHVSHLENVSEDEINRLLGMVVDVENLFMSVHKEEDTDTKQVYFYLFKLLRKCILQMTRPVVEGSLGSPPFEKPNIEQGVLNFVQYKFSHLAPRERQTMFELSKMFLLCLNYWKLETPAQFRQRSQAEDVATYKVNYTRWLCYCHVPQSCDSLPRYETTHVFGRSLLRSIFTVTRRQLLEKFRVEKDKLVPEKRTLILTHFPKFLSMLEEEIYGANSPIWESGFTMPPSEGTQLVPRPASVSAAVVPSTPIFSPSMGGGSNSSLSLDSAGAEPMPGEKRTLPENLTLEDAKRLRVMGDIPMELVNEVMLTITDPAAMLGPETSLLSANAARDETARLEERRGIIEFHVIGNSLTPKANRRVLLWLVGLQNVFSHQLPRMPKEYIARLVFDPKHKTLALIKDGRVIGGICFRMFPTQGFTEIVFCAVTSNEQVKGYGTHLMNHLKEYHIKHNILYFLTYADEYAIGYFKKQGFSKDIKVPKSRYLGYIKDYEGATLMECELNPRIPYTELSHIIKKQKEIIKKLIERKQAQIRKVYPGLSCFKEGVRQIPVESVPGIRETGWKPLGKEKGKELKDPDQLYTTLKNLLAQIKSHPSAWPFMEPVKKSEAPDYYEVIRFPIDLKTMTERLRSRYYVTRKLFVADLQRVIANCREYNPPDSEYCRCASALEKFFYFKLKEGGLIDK
The next test addresses BRD4(1) (Homo sapiens, UniProt O60885). The test is described as follows: BROMOscan ligand-binding assay.
The target in the next test is T3, TRIM24 (Homo sapiens, UniProt O15164).
T3 sequence (O15164 899-1004 limits assumed): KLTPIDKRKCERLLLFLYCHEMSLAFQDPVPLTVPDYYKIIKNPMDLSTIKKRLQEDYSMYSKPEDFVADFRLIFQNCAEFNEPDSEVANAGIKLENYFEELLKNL
The test is described as follows: BROMOscan ligand-binding assay.

In another test the target is T4, HAT1 (Homo sapiens, UniProt O14929).
T4 sequence (O14929 1-419): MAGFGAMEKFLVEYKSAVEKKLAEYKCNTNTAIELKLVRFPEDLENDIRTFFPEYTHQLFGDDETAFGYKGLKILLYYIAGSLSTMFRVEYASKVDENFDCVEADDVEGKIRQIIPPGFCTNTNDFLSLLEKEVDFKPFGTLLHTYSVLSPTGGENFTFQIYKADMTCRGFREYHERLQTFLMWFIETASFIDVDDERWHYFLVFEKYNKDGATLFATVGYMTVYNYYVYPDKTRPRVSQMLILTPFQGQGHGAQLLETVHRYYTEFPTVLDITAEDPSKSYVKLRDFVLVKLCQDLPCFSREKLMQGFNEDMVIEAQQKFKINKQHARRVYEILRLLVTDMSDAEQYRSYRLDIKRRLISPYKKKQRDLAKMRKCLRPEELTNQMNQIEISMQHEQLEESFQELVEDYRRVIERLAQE
Briefly: Histone acetyltransferase (HAT) activity assay. Format: biochemical. The note with it: for activity at 1 µM / activity at 10 µM: read-out: HATs Activity (%).

The next test deals with BRD2(1) (Homo sapiens, UniProt P25440). The test is described as follows: BROMOscan ligand-binding assay.
Chain of BRD2(1) (P25440 74-180 limits assumed): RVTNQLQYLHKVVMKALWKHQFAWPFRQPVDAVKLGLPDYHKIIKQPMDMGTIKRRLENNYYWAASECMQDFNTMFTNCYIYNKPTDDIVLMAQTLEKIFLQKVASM
For the next test, the target named is CREBBP (Homo sapiens, UniProt Q92793). The test is described as follows: BROMOscan ligand-binding assay.
Chain of CREBBP (Q92793 1085-1192 limits assumed): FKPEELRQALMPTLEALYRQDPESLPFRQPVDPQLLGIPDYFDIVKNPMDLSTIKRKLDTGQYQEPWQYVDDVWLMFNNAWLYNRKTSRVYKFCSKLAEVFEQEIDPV
Where [1] appears, read: KD (BROMOscan), sheet prints no unit (nM).
Where [2] appears, read: read-out: KD (BROMOscan), sheet prints no unit (nM).

Chain of MYST3 (Q92794 whole entry, species assumed): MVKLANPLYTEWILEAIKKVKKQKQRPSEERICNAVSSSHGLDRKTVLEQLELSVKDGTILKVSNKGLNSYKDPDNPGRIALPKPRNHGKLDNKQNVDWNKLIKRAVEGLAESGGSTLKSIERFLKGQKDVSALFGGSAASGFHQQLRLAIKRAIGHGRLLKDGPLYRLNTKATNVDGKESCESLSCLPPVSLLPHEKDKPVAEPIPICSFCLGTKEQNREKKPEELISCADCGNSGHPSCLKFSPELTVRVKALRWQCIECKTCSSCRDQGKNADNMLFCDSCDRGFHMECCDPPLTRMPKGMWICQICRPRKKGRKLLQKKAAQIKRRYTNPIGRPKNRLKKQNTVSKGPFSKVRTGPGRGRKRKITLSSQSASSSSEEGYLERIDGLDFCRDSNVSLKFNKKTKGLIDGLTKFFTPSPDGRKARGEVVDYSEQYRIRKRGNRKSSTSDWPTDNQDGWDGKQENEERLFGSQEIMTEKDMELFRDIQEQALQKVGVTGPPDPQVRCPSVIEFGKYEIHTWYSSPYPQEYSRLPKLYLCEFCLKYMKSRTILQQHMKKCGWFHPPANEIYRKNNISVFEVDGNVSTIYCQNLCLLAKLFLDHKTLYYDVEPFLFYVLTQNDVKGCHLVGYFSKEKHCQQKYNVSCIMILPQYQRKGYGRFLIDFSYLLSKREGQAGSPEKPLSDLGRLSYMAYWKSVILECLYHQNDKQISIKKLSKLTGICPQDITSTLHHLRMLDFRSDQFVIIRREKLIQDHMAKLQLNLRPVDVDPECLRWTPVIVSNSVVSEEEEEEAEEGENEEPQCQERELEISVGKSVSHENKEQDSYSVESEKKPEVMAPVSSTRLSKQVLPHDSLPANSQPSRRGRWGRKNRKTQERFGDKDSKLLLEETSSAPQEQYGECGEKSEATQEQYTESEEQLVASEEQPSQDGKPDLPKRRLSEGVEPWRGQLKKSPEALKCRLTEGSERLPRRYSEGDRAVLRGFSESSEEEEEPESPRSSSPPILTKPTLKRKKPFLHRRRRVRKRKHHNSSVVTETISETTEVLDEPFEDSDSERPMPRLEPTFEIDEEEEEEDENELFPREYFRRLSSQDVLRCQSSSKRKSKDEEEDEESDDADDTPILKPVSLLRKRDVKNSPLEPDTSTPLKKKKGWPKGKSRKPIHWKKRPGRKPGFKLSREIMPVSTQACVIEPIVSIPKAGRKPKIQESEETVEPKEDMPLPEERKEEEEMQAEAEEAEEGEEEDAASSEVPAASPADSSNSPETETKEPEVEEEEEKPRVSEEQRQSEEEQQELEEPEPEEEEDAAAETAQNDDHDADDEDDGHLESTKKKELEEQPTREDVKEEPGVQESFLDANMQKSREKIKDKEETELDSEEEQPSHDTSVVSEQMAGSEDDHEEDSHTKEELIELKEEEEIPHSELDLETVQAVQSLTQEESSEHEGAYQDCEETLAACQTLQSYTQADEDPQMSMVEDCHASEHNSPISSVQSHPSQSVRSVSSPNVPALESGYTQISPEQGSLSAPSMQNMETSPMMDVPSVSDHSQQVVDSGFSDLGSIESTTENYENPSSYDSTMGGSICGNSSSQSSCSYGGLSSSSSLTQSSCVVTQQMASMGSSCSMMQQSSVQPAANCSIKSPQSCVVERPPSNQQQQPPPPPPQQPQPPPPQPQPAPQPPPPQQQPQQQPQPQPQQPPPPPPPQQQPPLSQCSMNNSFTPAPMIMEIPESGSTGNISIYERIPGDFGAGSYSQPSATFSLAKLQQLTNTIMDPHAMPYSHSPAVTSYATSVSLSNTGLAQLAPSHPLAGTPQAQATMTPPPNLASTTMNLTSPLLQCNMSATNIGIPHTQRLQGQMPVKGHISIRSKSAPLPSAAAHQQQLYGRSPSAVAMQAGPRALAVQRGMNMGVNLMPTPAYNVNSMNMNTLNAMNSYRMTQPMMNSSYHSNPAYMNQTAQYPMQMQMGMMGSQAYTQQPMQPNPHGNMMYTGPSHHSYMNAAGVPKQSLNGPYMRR
Chain of BRD3(1) (Q15059 34-140 limits assumed): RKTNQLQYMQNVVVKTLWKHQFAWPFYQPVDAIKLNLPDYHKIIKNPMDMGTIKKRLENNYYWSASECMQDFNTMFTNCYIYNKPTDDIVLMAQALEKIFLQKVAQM
Description for BRD2(1): (§1) BROMOscan is a binding assay based on the well-known KINOMEscan technology. This assay measures the binding of a DNA-tagged bromodomain to an immobilized BRD ligand. If an inhibitor is present, it will compete with the bromodomain binding to the immobilized ligand, resulting in reduction of a quantitative PCR (qPCR) signal in a dose-dependent manner.
Description for BRD3(1): as §1
Description for BRD4(1): as §1
Description for BRD8(1): as §1
Description for BRD8(2): as §1
Description for BRPF1: as §1
Description for CREBBP: as §1
Description for TRIM24: as §1

The Kd is the equilibrium constant for the complex coming apart. As to `COc1ccc(CCc2nc3cc(-c4c(C)noc4C)ccc3n2C[C@H](C)N2CCOCC2)cc1Cl` [SGC-CBP30], the activity at 1 µM at EP300 (1µM) turned out to be 98%; on MYST3 (1µM), 103%; at MYST1 (1µM), 103%; at GCN5L2 (1µM), 101%; on HAT1 (1µM) it was 96%. Further, the activity at 10 µM at EP300 (10µM) came out at 92%; at MYST3 (10µM), 103%; on MYST1 (10µM) it was 97%; on GCN5L2 (10µM), 101%; at HAT1 (10µM) it was 97%. Also, the Kd at BRD8(2) (setting [1]) is more than 30000 nM; at BRD8(2) (KD, BROMOscan, BRD8(2)) it was more than 100000 nM; on BRD8(1) (setting [1]), more than 30000 nM; at BRD8(1) (KD, BROMOscan, BRD8(1)), more than 100000 nM; at BRPF1 (KD, BROMOscan, BRPF1) it was 2400 nM; at BRD3(1) (KD, BROMOscan, BRD3(1)), 740 nM. Also, the Kd was 1.1 µM on BRD4(1); 12000 nM at TRIM24 (KD, BROMOscan, TRIM24(Bromo.)); 0.62 µM on BRD2(1).

As to `CCCOc1ccn2c(C(C)=O)cc(-c3ccccc3S(C)(=O)=O)c2c1` [GSK2801], the Kd on BRD8(2) (setting [1]) is more than 30000 nM; at BRD8(2) (KD, BROMOscan Gene Symbol BRD8(2)), more than 100000 nM; at BRD8(1) (setting [1]) it was more than 30000 nM; at BRD8(1) (KD, BROMOscan Gene Symbol BRD8(1)), more than 100000 nM; on BRPF1 (KD, BROMOscan Gene Symbol BRPF1) it was 14000 nM; on BRD3(1) (KD, BROMOscan Gene Symbol BRD3(1)), 34000 nM. Besides, the Kd on BRD4(1) was 74 µM; at TRIM24 (KD, BROMOscan Gene Symbol TRIM24(Bromo.)), 24000 nM; at CREBBP (KD, BROMOscan Gene Symbol CREBBP) it was 21000 nM; at BRD2(1), 41 µM.

Take `Cc1noc(C)c1-c1ccc2c(c1)nc(CCc1ccccc1)n2CCN1CCOCC1` [CBP30-298]: the Kd on BRPF1 (BROMOscan Gene Symbol BRPF1) was found to be 18000 nM; on BRD3(1) (BROMOscan Gene Symbol BRD3(1)) it was 960 nM; at BRD4(1) (BROMOscan Gene Symbol BRD4(1)), 0.52 µM; on CREBBP (BROMOscan Gene Symbol CREBBP) it was 140 nM; at BRD2(1) (BROMOscan Gene Symbol BRD2(1)) it was 0.78 µM.

For `O=C(C=CN1CC2CC1CN2c1ccccn1)c1ccccc1O` (centres unmarked) [PFI-3], the activity at 1 µM was determined as 98% on EP300 (1µM); 95% on MYST3 (1µM); 99% on MYST1 (1µM); 99% at GCN5L2 (1µM); 96% on HAT1 (1µM). Also, the activity at 10 µM came to 97% at EP300 (10µM); 96% on MYST3 (10µM); 99% at MYST1 (10µM); 101% at GCN5L2 (10µM); 94% on HAT1 (10µM). Further, the Kd on BRD8(2) (setting [1]) was more than 30000 nM; on BRD8(2) (KD, BRD8(2)), more than 100000 nM; at BRD8(1) (setting [1]), more than 30000 nM; at BRD8(1) (KD, BRD8(1)), more than 100000 nM; on BRPF1 (setting [1]) it was more than 30000 nM; on BRPF1 (KD, BRPF1), more than 100000 nM. Also, the Kd on BRD3(1) (setting [1]) was more than 30000 nM; on BRD3(1) (KD, BRD3(1)), more than 100000 nM; on TRIM24 (setting [1]) it was more than 30000 nM; at TRIM24 (KD, TRIM24(Bromo.)), more than 100000 nM; on CREBBP (setting [1]), more than 30000 nM; at CREBBP (KD, CREBBP), more than 100000 nM.

On to `O=C(O)c1ccccc1O` [Salicylic Acid], for which the Kd at BRD8(2) (KD, BRD8(2)) was more than 1.4e+07 nM; on BRD8(1) (KD, BRD8(1)) it was more than 1.4e+07 nM; on BRPF1 (KD, BRPF1), 4.2e+06 nM; on BRD4(1) it was more than 14000 µM; on TRIM24 (KD, TRIM24(Bromo.)) it was more than 1.4e+07 nM; at CREBBP (KD, CREBBP), more than 1.4e+07 nM. In addition, at BRD2(1), the Kd is more than 14000 µM.

As to `COc1cc2c(cc1NS(=O)(=O)c1ccc(Br)cc1C)n(C)c(=O)n2C` [OF-1], the “HATs Activity (%)” value amounted to 100% at EP300 (1µM); 103% at EP300 (10µM); 100% on MYST3 (1µM); 102% on MYST3 (10µM); 102% at MYST1 (1µM); 94% at MYST1 (10µM). The “HATs Activity (%)” value at GCN5L2 (1µM) stood at 98%; at GCN5L2 (10µM) it was 93%; at HAT1 (1µM), 92%; on HAT1 (10µM) it was 93%. The Kd is more than 50000 nM on BRD8(2) (BRD8(2)); more than 30000 nM on BRD8(2) (setting [2]); more than 50000 nM at BRD8(1) (BRD8(1)); more than 30000 nM at BRD8(1) (setting [2]); 5500 nM on BRD3(1) (BRD3(1)); 1900 nM on TRIM24 (TRIM24(Bromo.)). Also, the Kd at CREBBP (CREBBP) worked out at 45000 nM; on BRD2(1) (BRD2(1)), 7.4 µM.

`COc1cc(C#N)ccc1S(=O)(=O)Nc1ccc2c(c1)cc(C)c(=O)n2C` [NI 57]: the Kd is more than 50000 nM on BRD8(2) (BRD8(2)); more than 50000 nM at BRD8(1) (BRD8(1)); 4 nM at BRPF1 (BRPF1); 7200 nM at BRD3(1) (BRD3(1)); 3.3 µM on BRD4(1) (BRD4(1)); 1600 nM on TRIM24 (TRIM24(Bromo.)). In addition, the Kd at CREBBP (CREBBP) is 13000 nM; on BRD2(1) (BRD2(1)), 5.9 µM.

Consider `COc1ccccc1C(=O)Nc1cc2c(cc1N1CCNC[C@H]1C)n(C)c(=O)n2C` [GSK6853], for which the “HATs Activity (%)” value amounted to 98% on EP300 (1µM); 104% at EP300 (10µM); 107% on MYST3 (1µM); 104% on MYST3 (10µM); 99% on MYST1 (1µM); 101% on MYST1 (10µM). For the same compound, the “HATs Activity (%)” value on GCN5L2 (1µM) worked out at 107%; at GCN5L2 (10µM) it was 107%; on HAT1 (1µM), 100%; at HAT1 (10µM), 94%.

As to `O=C(C=CN1[C@H]2CC[C@@H]1c1ncnc(NC3CC3)c1C2)c1ccccc1O` [PFI-3 D1], the Kd at BRD8(2) (BROMOscan, BRD8(2)) was more than 30000 nM; at BRD8(1) (BROMOscan, BRD8(1)), more than 30000 nM; at BRPF1 (BROMOscan, BRPF1), more than 30000 nM; on BRD3(1) (BROMOscan, BRD3(1)) it was more than 30000 nM; at BRD4(1) (BROMOscan, BRD4(1)) it was 27 µM; at TRIM24 (BROMOscan, TRIM24(Bromo.)) it was more than 30000 nM. Besides, the Kd at CREBBP (BROMOscan, CREBBP) is more than 30000 nM; on BRD2(1) (BROMOscan, BRD2(1)), more than 30 µM.

As for `CCCS(=O)(=O)c1nc(NC2CC2)cc(-c2ccc3c(ccn3C3CC(C)(C)NC(C)(C)C3)c2)n1` [NVS-CECR2-1], the activity at 1 µM on EP300 stood at 90%; at MYST3, 98%; at MYST1 it was 96%; on GCN5L2, 100%; on HAT1, 99%. Also, the activity at 10 µM is 84% at EP300; 103% on MYST3; 94% on MYST1; 100% at GCN5L2; 88% on HAT1. The Kd was more than 30000 nM on BRD8(2); more than 30000 nM on BRD8(1); 3500 nM at BRPF1; more than 30000 nM on BRD3(1); 21 µM at BRD4(1); more than 30000 nM at TRIM24. Besides, the Kd on CREBBP was more than 30000 nM; at BRD2(1) it was more than 30 µM.
